One data set concerns Smn protein. The data set is described as follows: Smn protein assay in cultured cells (SMN HTRF). The data set is classed as cell-based, human. The settings on record: 48 hours; for EC1.5x (concentration giving 1.5-fold Smn protein increase): SMA Type 1 patient fibroblast cells (GM03813), 7-point concentration curve, SMN HTRF, concentration producing 1.5 times Smn protein vs DMSO vehicle control, read-out: EC1.5x for Smn protein expression; for maximum fold (Fold) increase of Smn protein: SMA patient fibroblast cells, 7-point concentration data, fold increase relative to vehicle control (SMN HTRF). In a few lines:
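Lysates in RIPA with protease inhibitors are incubated overnight at room temperature with HTRF anti-SMN antibodies. EC1.5x is derived from fold increase in ΔF over vehicle.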

The subject of data set [1] is SMN2 minigene (full length SMN2 minigene mRNA containing SMN2 exon 7). Put plainly: SMN2 minigene mRNA splicing RT-qPCR assay in cultured cells. It counts as cell-based, human. The settings on record: Homo sapiens, HEK293-H; HEK293H cells stably transfected with SMN2-A minigene; 24 hours; 7-point concentration curve; 1.5-fold relative to vehicle-treated cells; read-out: EC1.5x for production of full length SMN2 mRNA. The procedure, abridged:
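Read-out: full-length (exon 7-included) SMN2 minigene mRNA by multiplex RT-qPCR with GAPDH, efficiency-corrected (1+E)^−Ct, GAPDH-normalized and divided by vehicle. Stably transfected HEK293H cells, 24 h compound exposure, duplicates per concentration. Value is EC1.5x, reported as star ranges.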

Bounds are passed on as bounds.

As to `COc1cccn2cc(-c3cc4ccc(N5C[C@@H](C)N[C@@H](C)C5)cc4oc3=O)nc12` [Compound 418, 7-[(3R,5 S)-3,5-dimethylpiperazin-1-yl]-3-(8-methoxyimidazo[1,2-a]pyridin-2-yl)-2H-chromen-2-one], the melting point is 184 to 186 °C. Further, in the data set on Smn protein, the EC1.5x (concentration giving 1.5-fold Smn protein increase) fell in the range of 300 to 1000 nM; the “maximum fold (Fold) increase of Smn protein” value (from here on “maximum fold (Fold) increase”) was “**** (fold increase between >1.5 and ≤1.65)”. The EC (1.5-fold) in data set [1] was 1 to 3 µM.

`Cc1cn2cc(-c3cc4ccc(CCCN5CCC[C@@H]5CO)cc4oc3=O)nc2c(C)n1` [Compound 883, 3-(6,8-dimethylimidazo[1,2-a]pyrazin-2-yl)-7-{3-[(2R)-2-(hydroxymethyl)pyrrolidin-1-yl]propyl}-2H-chromen-2-one] displayed a melting point of 182 to 185 °C. In the data set with Smn protein, the EC1.5x (concentration giving 1.5-fold Smn protein increase) is under 300 nM and the “maximum fold (Fold) increase” value is listed as “***** (fold increase >1.65)”. In data set [1], the EC (1.5-fold) was under 0.1 µM.

`Cc1cn2cc(-c3cc4ccc(N5CCN[C@@H](C)C5)cc4oc3=O)cc2cn1` [Compound 647, 7-[(3S)-3-methylpiperazin-1-yl]-3-(3-methylpyrrolo[1,2-a]pyrazin-7-yl)-2H-chromen-2-one] displayed a melting point of 202 to 204 °C. In addition, in the data set with Smn protein, the EC1.5x (concentration giving 1.5-fold Smn protein increase) is under 300 nM; the “maximum fold (Fold) increase” value was “**** (fold increase between >1.5 and ≤1.65)”. Moreover, the EC (1.5-fold) in data set [1] was under 0.1 µM.

In turn, `Cc1cn2cc(-c3cc4ccc(OCCN5CC[C@@H](O)C5)cc4oc3=O)nc2c(C)n1` [Compound 941, 3-(6,8-dimethylimidazo[1,2-a]pyrazin-2-yl)-7-{2-[(3R)-3-hydroxypyrrolidin-1-yl]ethoxy}-2H-chromen-2-one] registered a melting point of 195 to 202 °C. Besides, in the data set with Smn protein, the EC1.5x (concentration giving 1.5-fold Smn protein increase) was in the range of 1000 to 3000 nM; the “maximum fold (Fold) increase” value is “**** (fold increase between >1.5 and ≤1.65)”. Further, in data set [1], the EC (1.5-fold) is under 0.1 µM.

As for `Cc1cnc2nc(-c3cc4ccc(N5CCCNCC5)cc4oc3=O)cn2c1` [Compound 378, 7-(1,4-diazepan-1-yl)-3-(6-methylimidazo[1,2-a]pyrimidin-2-yl)-2H-chromen-2-one], the melting point was 275 to 278 °C. Moreover, in the data set on Smn protein, the “maximum fold (Fold) increase” value is “** (fold increase between >1.2 and ≤1.35)”. Besides, the EC (1.5-fold) in data set [1] was in the range of 0.1 to 0.3 µM.

Molecule `Cc1cn2cc(-c3cc4ccc(C5CCN(CC(C)C)CC5)cc4oc3=O)nc2cn1` [Compound 916, 3-(6-methylimidazo[1,2-a]pyrazin-2-yl)-7-[1-(2-methylpropyl)piperidin-4-yl]-2H-chromen-2-one] returned a melting point of 260 to 270 °C. In the data set on Smn protein, the EC1.5x (concentration giving 1.5-fold Smn protein increase) is 300 to 1000 nM; the “maximum fold (Fold) increase” value is “**** (fold increase between >1.5 and ≤1.65)”. Further, in data set [1], the EC (1.5-fold) lay within 0.1 to 0.3 µM.

`Cc1cn2cc(-c3cc4ccc(N5CC(N(C)C)C5)cc4oc3=O)nc2c(C)n1` [Cpd 943, 7-[3-(dimethylamino)azetidin-1-yl]-3-(6,8-dimethylimidazo[1,2-a]pyrazin-2-yl)-2H-chromen-2-one] returned a melting point of 246 to 250 °C. Further, in the data set with Smn protein, the EC1.5x (concentration giving 1.5-fold Smn protein increase) was under 300 nM; the “maximum fold (Fold) increase” value is “**** (fold increase between >1.5 and ≤1.65)”. For the same molecule, the EC (1.5-fold) in data set [1] was under 0.1 µM.

The molecule `CCN1CCN(c2ccc3cc(-c4cn5cc(C)ccc5n4)c(=O)oc3c2)CC1` [Compound 95, 7-(4-ethylpiperazin-1-yl)-3-(6-methylimidazo[1,2-a]pyridin-2-yl)-2H-chromen-2-one] had a melting point of 266 to 269 °C. Moreover, in the data set on Smn protein, the EC1.5x (concentration giving 1.5-fold Smn protein increase) was under 300 nM; the “maximum fold (Fold) increase” value is “**** (fold increase between >1.5 and ≤1.65)”. Also, in data set [1], the EC (1.5-fold) was in the range of 1 to 3 µM.

For `CCN1CCN(c2ccc3cc(-c4cn5cc(C)ncc5n4)c(=O)oc3c2)C[C@@H]1C` [Compound 627, 7-[(3S)-4-ethyl-3-methylpiperazin-1-yl]-3-(6-methylimidazo[1,2-a]pyrazin-2-yl)-2H-chromen-2-one], the melting point lay in the range of 205 to 208 °C. In the data set with Smn protein, the EC1.5x (concentration giving 1.5-fold Smn protein increase) was under 300 nM and the “maximum fold (Fold) increase” value is given as “***** (fold increase >1.65)”. The EC (1.5-fold) in data set [1] was under 0.1 µM.

In turn, `Cc1cn2cc(-c3cc4c(F)cc(N5CCCNCC5)cc4oc3=O)nc2c(C)n1` [Compound 608, 7-(1,4-diazepan-1-yl)-3-(6,8-dimethylimidazo[1,2-a]pyrazin-2-yl)-5-fluoro-2H-chromen-2-one] returned a melting point of 248 to 250 °C. For the same molecule, in the data set on Smn protein, the EC1.5x (concentration giving 1.5-fold Smn protein increase) is under 300 nM and the “maximum fold (Fold) increase” value is “***** (fold increase >1.65)”. For the same molecule, the EC (1.5-fold) in data set [1] is under 0.1 µM.

Molecule `Cc1cn2cc(-c3cc4ccc(N5CCCN(C)CC5)cc4oc3=O)nc2s1` [Compound 153, 7-(4-methyl-1,4-diazepan-1-yl)-3-(2-methylimidazo[2,1-b][1,3]thiazol-6-yl)-2H-chromen-2-one] returned a melting point of 179 to 184 °C. For the same molecule, in the data set on Smn protein, the “maximum fold (Fold) increase” value was “*** (fold increase between >1.35 and ≤1.5)”. For the same molecule, the EC (1.5-fold) in data set [1] lay within 1 to 3 µM.

`Cc1cn2cc(-c3cc4ccc(CCCN(C)CCO)cc4oc3=O)nc2c(C)n1` [Compound 880, 3-(6,8-dimethylimidazo[1,2-a]pyrazin-2-yl)-7-{3-[(2-hydroxyethyl)(methyl)amino]propyl}-2H-chromen-2-one] registered a melting point of 173 to 176 °C. Also, in the data set on Smn protein, the EC1.5x (concentration giving 1.5-fold Smn protein increase) is under 300 nM; the “maximum fold (Fold) increase” value is “**** (fold increase between >1.5 and ≤1.65)”. Further, in data set [1], the EC (1.5-fold) is under 0.1 µM.

In turn, `Cc1cn2cc(-c3cc4ccc(N5CC[C@H](CN(C)C)C5)cc4oc3=O)nc2c(C)n1` [Compound 965, 7-{(3R)-3-[(dimethylamino)methyl]pyrrolidin-1-yl}-3-(6,8-dimethylimidazo[1,2-a]pyrazin-2-yl)-2H-chromen-2-one] showed a melting point of 206 to 208 °C. Besides, in the data set with Smn protein, the EC1.5x (concentration giving 1.5-fold Smn protein increase) is under 300 nM; the “maximum fold (Fold) increase” value was “*** (fold increase between >1.35 and ≤1.5)”. Besides, the EC (1.5-fold) in data set [1] was under 0.1 µM.

The molecule `CN1CCN(c2ccc3cc(-c4cn(C)c5ccccc45)c(=O)oc3c2)CC1` [Compound 259, 3-(1-methyl-1H-indol-3-yl)-7-(4-methylpiperazin-1-yl)-2H-chromen-2-one] registered a melting point of 185 to 187 °C. The “maximum fold (Fold) increase” value with Smn protein is listed as “* (maximum fold increase of ≤1.2)”. Further, in data set [1], the EC (1.5-fold) was in the range of 1 to 3 µM.

As for `CN1CCCN(c2ccc3cc(-c4cn5ccc(C(F)(F)F)cc5n4)c(=O)oc3c2)CC1` [Compound 276, 7-(4-methyl-1,4-diazepan-1-yl)-3-[7-(trifluoromethyl)imidazo[1,2-a]pyridin-2-yl]-2H-chromen-2-one], the melting point was 244 to 249 °C. The “maximum fold (Fold) increase” value in the data set with Smn protein was “* (maximum fold increase of ≤1.2)”. The EC (1.5-fold) in data set [1] is 0.3 to 1 µM.

These data come from USRE47689E1, “Compounds for treating spinal muscular atrophy” (PTC Therapeutics, Inc., priority 2011, dated 2019).
